{
  "source": "patent US9895549B2",
  "about": "“On-demand drug release using magneto-electric nanoparticles” (priority 2012, dated 2018)",
  "system": "SKOV-3 cells",
  "experiment": "Trypan-blue cell viability after field treatment, SKOV-3",
  "format": "cell-based, human",
  "conditions": "PTX drug +, no field, 24-hour",
  "description": "After we confirmed that the drug-loaded MENs in the vicinity of the cancer cells indeed acted as a field-controlled valve to let the drug in (due to the effective nano-electroporation effect according to our hypothesis), we studied the viability of the cancer cells for different combinations of the drug and the carrier after the drug penetrated through the cell membrane. (Here, maintaining the remote field at 30 Oe provided the specificity to the cancer cells or, in other words, ensured that the healthy cells were intact.) The confocal images that were obtained after a 24-hour field treatment are in FIG. 13. The three key combinations of the carrier included (i) no particle, (ii) HER-2-GMO-MENs (Note: Here, HER-2 stands for the HER-2 biomarker antibody), and (iii) GMO-MENs, respectively. Accordingly, the three images (from left to right) in FIG. 13A show the morphology of the cancer cells after 24-hour treatment by (i) the free drug (with no particle carrier), (ii) drug-HER-2-GMO-MENs with no field applied, and (iii) drug-GMO-MENs in a 30-Oe d.c. field. The three control images in FIG. 13B show the morphology of the cancer cells after the 24-hour treatment by the same three combinations of the carrier with no drug present. In addition, we conducted the confocal imaging and the trypan-blue cell viability tests on both SKOV-3 and HOMEC cell lines after 24- and 36-hour field treatment. […]",
  "data": [
    {"smiles": "CC(=O)O[C@H]1C(=O)[C@@]2(C)[C@H]([C@H](OC(=O)c3ccccc3)[C@]3(O)C[C@H](OC(=O)[C@H](O)[C@@H](NC(=O)c4ccccc4)c4ccccc4)C(C)=C1C3(C)C)[C@]1(OC(C)=O)CO[C@@H]1C[C@@H]2O", "note": "[FREE, Paclitaxel]", "values": [
      {"measurement": "Percentage Cells Alive", "result": "86 ± 8.8", "unit": "%"}
    ]}
  ]
}
